Earlier results, collected in US11005050B2, “Metal complexes” (Merck Patent GmbH, priority 2014, dated 2021).

Settings: prior-art statement; for example in aromatic hydrocarbons or chlorobenzene

c1cnc2c(c1)ccc1ccc[c]([Ir]([c]3cccc4ccc5cccnc5c34)[c]3cccc4ccc5cccnc5c34)c12 [tris(benzo[h]quinoline)iridium(III)]
solubility in common organic solvents: virtually insoluble
